The chains are these.
B1: 26C-C2XH11-700DXM: rIFABP mutein MGI-KR14-14R 18L 26C 27A 38V 60R 73F 106L 115R 117D 131D-C2XH11 labeled with LICOR 700DX-maleimide (protein)
chain: MGIAFDGTWRVDRNENRERFLERMGINVCARRLGAHDNLRVTITQEGNRFTVRESSNFRNIDRVFELGVDFAYSLFDGTELTGTWTMEGNRLVGRFRRVDNGRELIAVLEISGNELIRTDTYEGVEARRIFRRDRGAASHHHHHHSHRATPNTSPHHHHHHH
modifications: C2XH11 tag; LICOR 700DX-maleimide label; mutated bf sensitive probe
notes: rIFABP mutein MGI-KR14-14R 18L 26C 27A 38V 60R 73F 106L 115R 117D 131D-C2XH11 labeled with LICOR 700DX-maleimide
B2: 27C-C2XH11-700DXM: rIFABP mutein MGI-KR14-14R 18L 27C 38V 60R 73F 106L 115R 117D 131D-C2XH11 labeled with LICOR 700DX-maleimide (protein)
chain: MGIAFDGTWRVDRNENRERFLERMGINVVCRRLGAHDNLRVTITQEGNRFTVRESSNFRNIDRVFELGVDFAYSLFDGTELTGTWTMEGNRLVGRFRRVDNGRELIAVLEISGNELIRTDTYEGVEARRIFRRDRGAASHHHHHHSHRATPNTSPHHHHHHH
modifications: C2XH11 tag; LICOR 700DX-maleimide label; mutated bf sensitive probe
notes: rIFABP mutein MGI-KR14-14R 18L 27C 38V 60R 73F 106L 115R 117D 131D-C2XH11 labeled with LICOR 700DX-maleimide

We go through ten molecules from patent US20230053493A1, “ONE STEP METHODS, KITS, AND SYSTEMS FOR THE MEASUREMENT OF CONCENTRATIONS OF UNBOUND BILIRUBIN IN BIOLOGICAL FLUIDS” (priority 2019, published 2023).

The term Kd denotes the constant that tells how readily two partners part at equilibrium. A lower Kd goes with tighter binding.

Where a name gives a salt, the structure may show the parent alone.

Chain of Albumin (P02768 25-609): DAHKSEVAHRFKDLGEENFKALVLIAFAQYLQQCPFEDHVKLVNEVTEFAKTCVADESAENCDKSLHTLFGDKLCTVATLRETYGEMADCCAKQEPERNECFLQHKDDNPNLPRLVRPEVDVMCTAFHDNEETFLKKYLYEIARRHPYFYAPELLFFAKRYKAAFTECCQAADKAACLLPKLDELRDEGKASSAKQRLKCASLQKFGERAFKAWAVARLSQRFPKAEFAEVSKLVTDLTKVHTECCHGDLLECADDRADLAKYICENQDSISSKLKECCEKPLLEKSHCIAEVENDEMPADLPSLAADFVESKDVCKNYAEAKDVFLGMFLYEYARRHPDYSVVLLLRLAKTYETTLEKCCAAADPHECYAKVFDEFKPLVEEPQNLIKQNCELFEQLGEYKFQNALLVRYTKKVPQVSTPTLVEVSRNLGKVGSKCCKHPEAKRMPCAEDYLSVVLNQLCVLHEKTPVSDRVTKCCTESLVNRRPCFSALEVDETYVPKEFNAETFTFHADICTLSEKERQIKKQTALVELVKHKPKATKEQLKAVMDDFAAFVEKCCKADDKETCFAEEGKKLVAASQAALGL

One assay addresses Albumin (Homo sapiens, UniProt P02768). Briefly: Drug displacement of bilirubin from albumin / interference, Bf measured with one-step cartridges. The format is in vitro ADME. The conditions noted are these: percent increase of Bf for the 3x drug concentration relative to no drug; negative value = interference with the Bf sensor. The text has this:
Premature infants who are at high risk for bilirubin neurotoxicity are of particular concern because NICU infants frequently receive medications. [Hsieh et al. Medication use in the neonatal intensive care unit. Am J Perinatol.
As to `C[C@@H]1[C@H](O)[C@@H](C)/C=C/C=C/C=C/C=C/C=C/C=C/C=C/[C@H](O[C@@H]2O[C@H](C)[C@@H](O)[C@H](N)[C@@H]2O)C[C@@H]2O[C@](O)(C[C@@H](O)C[C@@H](O)[C@H](O)CC[C@@H](O)C[C@@H](O)CC(=O)O[C@H]1C)C[C@H](O)[C@H]2C(=O)O` [Amphotericin B], the “Displacement or Interference” value is given as 199%. Consider `Cc1nnc(SCC2=C(C(=O)O)N3C(=O)[C@@H](NC(=O)Cn4cnnn4)[C@H]3SC2)s1` [Cefazolin sodium salt], for which the “Displacement or Interference” value is on record as 524%. On the same count and under the same terms, the same measure for `CO/N=C(\C(=O)N[C@@H]1C(=O)N2C(C(=O)O)=C(COC(C)=O)CS[C@H]12)c1csc(N)n1` [Cefotaxime]: 157%; for `CC(C)(O/N=C(\C(=O)N[C@@H]1C(=O)N2C(C(=O)[O-])=C(C[n+]3ccccc3)CS[C@H]12)c1csc(N)n1)C(=O)O` [Ceftazidime sodium salt]: 76%; for `NS(=O)(=O)c1cc2c(cc1Cl)N=CNS2(=O)=O` [Chlorothiazide]: 1626%. The same measure, in the same setting: the same measure for `NS(=O)(=O)c1cc(C(=O)O)c(NCc2ccco2)cc1Cl` [Furosemide]: 820%; for `Cc1onc(-c2ccccc2)c1C(=O)N[C@@H]1C(=O)N2[C@@H]1SC(C)(C)[C@@H]2C(=O)O` [Oxacillin]: 616%; for `CC(=O)S[C@@H]1CC2=CC(=O)CC[C@]2(C)[C@H]2CC[C@@]3(C)[C@@H](CC[C@@]34CCC(=O)O4)[C@H]12` [Spironolactone]: −98%.

System in the next assay: not listed separately
Kind of assay: Calibration of free NIR probe/sensor by bilirubin titration (cuvette fluorometry, fit with equation 1). Conditions: degree to which the probe is quenched by bilirubin binding; effect of fluorophore position. The assay is classed as binding. The text has this:
Embodiments provided herein are directed to methods of calibrating the bilirubin probes by mixing in an aqueous media the sensor with samples of bilirubin of increasing total bilirubin concentrations (BT), measuring the ratio of fluorescence intensities R of the sensor at each concentration, and determining the calibration parameters (Kd, Rm, and Ro) from the measured fluorescence by fitting with the equation (1), wherein R is the measured fluorescence ratio (Iλ1/Iλ2), where hi is the fluorescence intensity from the first fluorophore at wavelength λ1 and Iλ2 is the fluorescence intensity from the second fluorophore at wavelength λ2, both λ1 and λ2 have background subtracted, and Ro is the ratio in the absence of bilirubin. BT is the total bilirubin concentration and PT is the concentration of the sensor, r is the Iλ2/Iλ1 ratio of the bilirubin sensitive probe's fluorescence in the absence of the second fluorophore, Kd is the equilibrium dissociation constant of the sensor and Rm is the ratio R extrapolated to infinite BT. Equation (1) is used in some embodiments rather than equation (5) of U.S. Pat. No. 9,529,003 when Rm is >0.
Also described are methods for calibrating and using a bilirubin sensor described herein so that Bf concentrations can be determined in approximately 5 μl of undiluted blood samples in a single step. These small volume blood samples are applied to the disposable plastic microfluidic cartridges containing the dried bilirubin ratio sensor. The bilirubin sensor containing cartridges are preferably used for a single measurement and the calibration parameters (Kd, Rm, Ro) must be determined within a “lot” of identically manufactured cartridges. The calibration is performed by titrating a sufficient number of cartridges with aqueous samples of increasing well-defined Bf levels. Because plastics bind unbound bilirubin and because surface to volume ratio in the microfluidics channel is large, the calibration Bf samples must be highly buffered by complexes with albumin. The Bf concentrations of each complex are determined by measuring each by cuvette fluorometry using a calibrated sensor free in aqueous solutions. The free sensor is calibrated by titration with aqueous solutions of bilirubin where the concentrations of these unbound bilirubin solutions are determined by absorbance. The free probe's response (R values versus Bf concentrations) are used to determine the free sensor's calibration (Kd, Rm, Ro) (equation 1). The calibrated free sensor mixed with samples of each of the BR:HSA complexes is used to determine the Bf concentrations of each complexes by cuvette fluorometry using equation 2. These calibrated complexes are used to determine the binding parameters of the disposable cartridges including the equilibrium dissociation constant (Kd), the minimum fluorescence ratio (Rm) and the initial ratio (Ro) under defined conditions, of temperature, pH, and solution composition, suitable for blood samples. Binding isotherms are performed in aqueous buffer by measuring the change in fluorescence of the bilirubin sensor in response to increasing bilirubin concentrations (“titration data”). The set of fluorescence responses at each bilirubin concentration are fitted with an appropriate equation (“calibration equation (3)”) that correctly describes the fluorescence response as a function of the Bf concentration, the, specific spectroscopic characteristics, and the Kd.
All responder probes labeled with LICOR 700DX-maleimide and non-responder probes labeled with LICOR 800CW-maleimide probes in Tables 1 and 2, respectively have qualitatively similar dependencies on Bf. The probes differ mostly in protein expression, binding parameters (Kd, Ro and Rm) and stability. […] Although the non-responders are not characterized by bilirubin binding parameters, the emission spectrum of the 800CW-maleimide is sensitive to specific substitutions that can alter the LICOR 700DX-maleimide intensities. […]
As to B1, the “Qs (Rm/Ro)” value is recorded as 0.36. The same measure, in the same setting: the same measure for B2: 0.21.

Staying with this assay, now noted: effect of fluorophore (cysteine) position; responder probe labeled with 700DX-maleimide.
With B1, binding was put at a Kd of 21 nM.

In turn, B2 returned a dissociation constant Kd of 30 nM.
